US20230312550A1, “N-(2-(4-CYANOTHIAZOLIDIN-3-YL)-2-OXOETHYL)-QUINOLINE-4-CARBOXAMIDES” (AstraZeneca AB, priority 2020, published 2023)
≈ marks a conversion by molar mass, not a printed value.

How the values were obtained:
hFAP (M39-A757) = hFAP (M39-A757) (Homo sapiens (Human), UniProt Q12884); assay: hFAP binding assay (surface plasmon resonance); settings: SPR, 20° C.; for hFAP Binding assay k(off) / hFAP Binding assay k(on): single cycle kinetics; for Kd: n = 1 or geometric mean n = 2-4
Caco-2 cell permeability = settings: human
Protocol: Caco-2 cell permeability was measured as described in Mol Pharm 2017, 14, 1601.

[1] = molecular target: Prolyl endopeptidase, Prolyl Oligopeptidase (hPREP) (Homo sapiens (Human), UniProt P48147); assay: hPrep inhibition assay; format: biochemical; settings: hPREP 0.6 nM, Z-Gly-Pro-amino-methylcoumarin 50 μM; read-out: PREP IC50
Prolyl endopeptidase, Prolyl Oligopeptidase (hPREP), sequence (P48147 whole entry): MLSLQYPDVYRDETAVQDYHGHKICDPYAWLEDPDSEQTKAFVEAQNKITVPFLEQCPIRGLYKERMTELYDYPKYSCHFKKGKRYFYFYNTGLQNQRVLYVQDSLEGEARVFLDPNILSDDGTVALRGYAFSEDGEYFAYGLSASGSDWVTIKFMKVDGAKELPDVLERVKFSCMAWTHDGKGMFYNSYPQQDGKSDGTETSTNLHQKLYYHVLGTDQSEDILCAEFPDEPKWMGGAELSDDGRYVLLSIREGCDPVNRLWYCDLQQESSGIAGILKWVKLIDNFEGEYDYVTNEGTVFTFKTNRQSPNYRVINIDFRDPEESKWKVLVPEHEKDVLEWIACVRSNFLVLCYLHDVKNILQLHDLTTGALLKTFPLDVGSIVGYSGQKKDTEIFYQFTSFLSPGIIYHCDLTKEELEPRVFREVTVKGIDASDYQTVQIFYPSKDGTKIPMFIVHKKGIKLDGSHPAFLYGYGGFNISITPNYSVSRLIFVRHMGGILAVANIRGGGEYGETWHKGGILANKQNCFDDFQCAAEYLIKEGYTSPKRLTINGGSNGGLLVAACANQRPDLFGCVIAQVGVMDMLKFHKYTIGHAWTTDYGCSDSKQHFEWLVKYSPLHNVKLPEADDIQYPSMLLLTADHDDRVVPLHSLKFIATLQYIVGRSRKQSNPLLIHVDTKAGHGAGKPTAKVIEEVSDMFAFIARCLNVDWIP
Procedure, shortened: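 Recombinant human PREP at 0.6 nM final with Z-Gly-Pro-AMC substrate at 50 μM final in Tris-HCl pH 7.5, NaCl, Triton X-100, glutathione; 15 min rt preincubation then 20 min rt reaction in dark. AMC fluorescence (ex 340/em 460 nm); IC50 from one-site dose-response fit of % inhibition.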

Kinetic solubility = settings: kinetic from dmso stock
Protocol: Kinetic solubility was measured as described in Comput Aided Mol Des 2015, 29, 795.

[2] = Metabolic stability in rat hepatocytes (rHep); settings: n = 1 or geometric mean of n = 2-3
FAP = FAP (Homo sapiens (Human), UniProt Q12884); assay: hFAP inhibition assay; format: biochemical; settings: hFAP […], Ala-Pro-AMC 20 μM; n = 1 or geometric mean n = 2-3
FAP, sequence (Q12884 38-760): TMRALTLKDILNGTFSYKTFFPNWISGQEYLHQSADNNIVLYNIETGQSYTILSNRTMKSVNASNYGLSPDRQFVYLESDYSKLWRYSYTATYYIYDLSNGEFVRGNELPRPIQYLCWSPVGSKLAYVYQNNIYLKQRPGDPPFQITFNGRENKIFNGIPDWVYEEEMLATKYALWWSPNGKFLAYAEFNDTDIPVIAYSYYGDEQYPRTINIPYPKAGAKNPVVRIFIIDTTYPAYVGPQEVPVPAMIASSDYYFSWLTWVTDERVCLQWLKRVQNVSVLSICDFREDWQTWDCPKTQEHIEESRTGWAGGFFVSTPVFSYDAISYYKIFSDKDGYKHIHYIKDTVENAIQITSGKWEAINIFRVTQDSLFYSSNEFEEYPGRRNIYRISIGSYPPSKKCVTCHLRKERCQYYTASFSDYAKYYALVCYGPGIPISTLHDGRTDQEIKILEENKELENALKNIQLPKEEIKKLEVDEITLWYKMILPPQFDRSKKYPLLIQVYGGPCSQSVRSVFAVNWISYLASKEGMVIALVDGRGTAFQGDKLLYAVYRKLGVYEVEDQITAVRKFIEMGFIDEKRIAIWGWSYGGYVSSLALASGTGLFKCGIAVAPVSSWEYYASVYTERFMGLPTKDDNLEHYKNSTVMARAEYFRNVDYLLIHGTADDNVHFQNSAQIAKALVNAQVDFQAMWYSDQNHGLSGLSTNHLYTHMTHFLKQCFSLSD
Procedure, shortened: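 Human FAP (0.48 nM) in 100 mM Tris HCl, 100 mM NaCl, 0.05% Chaps, pH 7.4 was preincubated 15 min at rt in the dark with compounds (10-point, 3-fold series from 50 μM). Substrate was added from a 40 μM solution, then 30 min at rt. Fluorescence read at ex 340/em 460 nm; IC50 from one-site dose-response fit of % inhibition.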

[3] = Metabolic stability in human liver microsomes (HLM); settings: human
Protocol: Metabolic stability in HLM was measured as described in J Comput Aided Mol Des 2015, 29, 795.

[4] = molecular target: human Fibroblast activation protein alpha (hFAP) (Homo sapiens (Human), UniProt Q12884); assay: hFAP inhibition assay (tight binders); format: biochemical; settings: Ala-Pro-AMC 20 μM, n = 1 or geometric mean n = 2-6; further: hFAP 2.4 pM
human Fibroblast activation protein alpha (hFAP), sequence (Q12884 38-760): as above
Protocol: The plates were read on a PHERAstar® reader with excitation 340 nm and emission 460 nm. Data were analyzed in Genedata Screener®. IC50 values were determined by plotting % inhibition versus log compound concentration and using a one site dose response model.

[5] = Solubility, kinetic solubility, n = 1 or average of n = 2-3
[6] = HLM CLint, n = 1 or average of n = 2-3

hFAP (M39-A757), sequence (Q12884 39-757): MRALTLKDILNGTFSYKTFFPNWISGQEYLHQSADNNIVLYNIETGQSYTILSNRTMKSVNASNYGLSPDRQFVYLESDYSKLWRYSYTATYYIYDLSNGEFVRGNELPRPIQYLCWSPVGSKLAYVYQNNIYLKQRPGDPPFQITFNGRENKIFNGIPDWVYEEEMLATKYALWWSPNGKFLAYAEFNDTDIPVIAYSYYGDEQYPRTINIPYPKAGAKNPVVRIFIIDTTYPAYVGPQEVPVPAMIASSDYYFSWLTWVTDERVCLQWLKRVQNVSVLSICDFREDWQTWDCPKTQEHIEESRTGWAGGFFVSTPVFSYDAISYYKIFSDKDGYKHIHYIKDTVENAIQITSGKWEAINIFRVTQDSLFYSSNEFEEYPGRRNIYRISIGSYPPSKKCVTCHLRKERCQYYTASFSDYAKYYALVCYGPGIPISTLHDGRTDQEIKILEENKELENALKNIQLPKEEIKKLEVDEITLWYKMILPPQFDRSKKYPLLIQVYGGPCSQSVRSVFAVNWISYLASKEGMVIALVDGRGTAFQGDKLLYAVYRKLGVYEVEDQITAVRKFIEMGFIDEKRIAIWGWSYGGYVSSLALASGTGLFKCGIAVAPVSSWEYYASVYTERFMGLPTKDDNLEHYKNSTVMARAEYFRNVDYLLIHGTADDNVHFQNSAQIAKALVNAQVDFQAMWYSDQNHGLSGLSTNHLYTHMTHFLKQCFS

Row | Compound | hFAP Binding assay k(off) (hFAP (M39-A757)) [s⁻¹] | hFAP Binding assay k(on) (hFAP (M39-A757)) [M⁻¹ s⁻¹] | Kd (hFAP (M39-A757)) [nM] | Papp A→B (Caco-2 cell permeability) [×10⁻⁶ cm/s] | Papp B→A (Caco-2 cell permeability) [×10⁻⁶ cm/s] | efflux ratio (Caco-2 cell permeability) | IC50 [1] [nM] | solubility (Kinetic solubility; [5]) [µM] | rHep CLint [2] [μL/min/1E6] | IC50 (FAP) [nM] | microsomal CLint [3, 6] [µL/min/mg] | IC50 [4] [nM] | solubility (Kinetic solubility) [µM] | microsomal CLint [3] [µL/min/mg]
1 | N#C[C@@H]1CSCN1C(=O)CNC(=O)c1ccnc2ccc(-c3ccnc(F)c3)cc12 [Example 124, (R)—N-(2-(4-Cyanothiazolidin-3-yl)-2-oxoethyl)-6-(2-fluoropyridin-4-yl)quinoline-4-carboxamide] | 0.00028 | 3000000 | 0.094 | 0.65 | 39 | 59 | 220 | 38 (≈ 16 µg/mL) | 14 | 0.24 | 12 | 0.055 | – | –
2 | C[C@H]1CCCN1c1ccc2nccc(C(=O)NCC(=O)N3CSC[C@H]3C#N)c2c1 [Example 65, N-(2-((R)-4-Cyanothiazolidin-3-yl)-2-oxoethyl)-6-((S)-2-methylpyrrolidin-1-yl)quinoline-4-carboxamide] | 0.00047 | 6700000 | 0.055 | – | – | – | 100 | 49 (≈ 20.1 µg/mL) | 110 | 0.28 | 150 | 0.17 | – | –
3 | C[C@@H]1CCN(c2ccc3nccc(C(=O)NCC(=O)N4CSC[C@H]4C#N)c3c2)CCO1 [Example 61, N-(2-((R)-4-Cyanothiazolidin-3-yl)-2-oxoethyl)-6-((R)-7-methyl-1,4-oxazepan-4-yl)quinoline-4-carboxamide] | – | – | 0.062 | – | – | – | 390 | 670 (≈ 294 µg/mL) | 26 | 0.21 | 47 | 0.06 | – | –
4 | CC1CN(c2ccc3nccc(C(=O)NCC(=O)N4CSC[C@H]4C#N)c3c2)C1 [Example 25, (R)—N-(2-(4-Cyanothiazolidin-3-yl)-2-oxoethyl)-6-(3-methylazetidin-1-yl)-quinoline-4-carboxamide] | 0.00011 | 1400000 | 0.076 | – | – | – | 370 | 130 (≈ 51.4 µg/mL) | 14 | 0.41 | 23 | 0.3 | – | –
5 | C[C@H]1CCN(c2ccc3nccc(C(=O)NCC(=O)N4CSC[C@H]4C#N)c3c2)C1 [Example 54, N-(2-((R)-4-Cyanothiazolidin-3-yl)-2-oxoethyl)-6-((S)-3-methylpyrrolidin-1-yl)quinoline-4-carboxamide] | 0.00023 | 6200000 | 0.045 | – | – | – | 300 | 13 (≈ 5.32 µg/mL) | 49 | 0.22 | 57 | 0.062 | – | –
6 | N#C[C@@H]1CSCN1C(=O)CNC(=O)c1ccnc2ccc(N3C[C@H](F)[C@@H](F)C3)cc12 [Example 213, N-(2-((R)-4-Cyanothiazolidin-3-yl)-2-oxoethyl)-6-((3S,4S)-3,4-difluoro-pyrrolidin-1-yl)quinoline-4-carboxamide] | 0.00017 | 4400000 | 0.039 | – | – | – | 470 | 100 (≈ 43.1 µg/mL) | 19 | 0.18 | 31 | 0.039 | – | –
7 | CC[C@H]1COCCN1c1ccc2nccc(C(=O)NCC(=O)N3CSC[C@H]3C#N)c2c1 [Example 106, N-(2-((R)-4-Cyanothiazolidin-3-yl)-2-oxoethyl)-6-((S)-3-ethyl-morpholino)quinoline-4-carboxamide] | 0.00014 | 1800000 | 0.075 | – | – | – | 520 | 700 (≈ 308 µg/mL) | 21 | 0.23 | 47 | 0.08 | – | –
8 | N#C[C@@H]1CSCN1C(=O)CNC(=O)c1ccnc2ccc(N3CC4(CCC4)C3)cc12 [Example 17, (R)—N-(2-(4-Cyanothiazolidin-3-yl)-2-oxoethyl)-6-(2-azaspiro[3.3]heptan-2-yl)quinoline-4-carboxamide] | 0.00012 | 8300000 | 0.015 | – | – | – | 160 | – | 16 | 0.22 | – | 0.085 | 250 (≈ 105 µg/mL) | 18
9 | CC(C)n1nccc1-c1ccc2nccc(C(=O)NCC(=O)N3CSC[C@H]3C#N)c2c1 [Example 197, (R)—N-(2-(4-Cyanothiazolidin-3-yl)-2-oxoethyl)-6-(1-isopropyl-1H-pyrazol-5-yl)quinoline-4-carboxamide] | 0.000066 | 88000 | 0.75 | – | – | – | 1900 | 6 (≈ 2.61 µg/mL) | 5.3 | 0.72 | 15 | 0.42 | – | –
10 | N#C[C@@H]1CSCN1C(=O)CNC(=O)c1ccnc2ccc(N3CC4CC4C3)cc12 (stereo partly drawn) [Example 206, 6-(3-Azabicyclo[3.1.0]hexan-3-yl)-N-(2-((R)-4-cyanothiazolidin-3-yl)-2-oxoethyl)quinoline-4-carboxamide] | – | – | 0.033 | – | – | – | 330 | 26 (≈ 10.6 µg/mL) | 130 | 0.22 | 46 | 0.065 | – | –
11 | CC1(F)CCN(c2ccc3nccc(C(=O)NCC(=O)N4CSC[C@H]4C#N)c3c2)CC1 [Example 34, (R)—N-(2-(4-Cyanothiazolidin-3-yl)-2-oxoethyl)-6-(4-fluoro-4-methyl-piperidin-1-yl)quinoline-4-carboxamide] | 0.000082 | 2200000 | 0.057 | – | – | – | 430 | 770 (≈ 340 µg/mL) | 33 | 0.27 | 38 | 0.22 | – | –
12 | C[C@H]1COCCCN1c1ccc2nccc(C(=O)NCC(=O)N3CSC[C@H]3C#N)c2c1 [Example 63, N-(2-((R)-4-Cyanothiazolidin-3-yl)-2-oxoethyl)-6-((S)-3-methyl-1,4-oxazepan-4-yl)quinoline-4-carboxamide] | 0.000059 | 4100000 | 0.03 | – | – | – | 400 | 690 (≈ 303 µg/mL) | 30 | 0.33 | 180 | 0.19 | – | –
13 | C[C@H]1COC[C@H](C)N1c1ccc2nccc(C(=O)NCC(=O)N3CSC[C@H]3C#N)c2c1 [Example 103, N-(2-((R)-4-Cyanothiazolidin-3-yl)-2-oxoethyl)-6-((3S,5S)-3,5-dimethyl-morpholino)quinoline-4-carboxamide] | 0.00010 | 3000000 | 0.033 | – | – | – | 580 | > 1000 | 23 | 0.31 | 54 | 0.11 | – | –
14 | N#C[C@@H]1CSCN1C(=O)CNC(=O)c1ccnc2ccc(-c3cccnc3)cc12 [Example 126, (R)—N-(2-(4-Cyanothiazolidin-3-yl)-2-oxoethyl)-6-(pyridin-3-yl)quinoline-4-carboxamide] | 0.00021 | 1800000 | 0.11 | – | – | – | 260 | 400 (≈ 161 µg/mL) | 10 | 0.32 | 16 | 0.081 | – | –
15 | N#C[C@@H]1CSCN1C(=O)CNC(=O)c1ccnc2ccc(N3CC(C(F)(F)F)C3)cc12 [Example 26, (R)—N-(2-(4-Cyanothiazolidin-3-yl)-2-oxoethyl)-6-(3-(trifluoromethyl)-azetidin-1-yl)quinoline-4-carboxamide] | 0.000065 | 1300000 | 0.056 | – | – | – | 580 | 15 (≈ 6.74 µg/mL) | 7.6 | 0.31 | 31 | 0.1 | – | –
